In patent US20150133497A1, “GLYCINE REUPTAKE INHIBITOR AND USE THEREOF” (Beijing Medisan Technology Co., Ltd., priority 2011, published 2015):

Tests used:
[1] = test system: high-activity behaviors in rats induced by PCP; assay: Effect on high-activity behaviors in rats induced by PCP; assay type: in vivo, Wistar rats; settings: for inhibition of high-activity behaviors in rats induced by PCP: Co. 1 5, 10 and 30 mg/kg i.p., Olanzepine 10 mg/kg i.p., PCP 5.0 mg/kg s.c., P<0.01 vs PCP group
Protocol: (§1) Animals used for experiments were adult male Wistar rats weighing 180˜250 g, housed in group of 6/cages, regulated with a 12/12 hour light/dark cycle, maintained at a constant temperature of 23±1° C. and a humidity of 50˜60% and allowed ad libitum access to rodent chow and water. After animals were purchased from the Experimental Animal Center, an adaptive housing was performed for a week, all the animals were randomly divided into three groups:
Group 1: negative control group, intraperitoneally injected with 1% DMSO in physiological saline (10.0 ml/kg, i.p.);
Group 2: experimental drug group, the rats were intraperitoneally injected respectively with different doses of test compound Co. 1: 5.0, 10 and 30 mg/kg, i.p., the drug was formulated in 1% DMSO in physiological saline.
Group 3: positive drug control group, the rats were intraperitoneally injected with Olanzepine (10 mg/kg, i.p., the drug was formulated in 1% DMSO in physiological saline)
The experiment employed Shanghai Jiliang animal behavior video analysis system, wherein the experimental environment was kept absolutely silent, when grabbing animals and administrating, movements were gentle to minimize adverse reactions of mental condition and emotion brought by external stimulus. The rats were moved from the animal room to a quiet lab and adapted for at least two hours. Subcutaneous injection of PCP (5.0 mg/kg, s.c.), or 1% DMSO in physiological saline as control, was administrated. 30 minutes later, the animals were intraperitoneally injected with the test compound, or 1% DMSO in physiological saline as control. The rats were placed in a spontaneous activity box, which was placed in an absolutely silent environment. The spontaneous activity box was connected to a recording apparatus and the activity conditions of rats were recorded for 30-60 minutes. The effect of drug or control on spontaneous activity in […] was determined.

[2] = test system: high-activity behaviors in rats induced by Amphetamine; assay: Effect on high-activity behaviors in rats induced by Amphetamine; assay type: in vivo, Wistar rats; settings: for inhibition of high-activity behaviors in rats induced by Amphetamine: Co. 1 5, 10 and 30 mg/kg i.p., Olanzepine 10 mg/kg i.p., Amphetamine 1.0 mg/kg s.c., P<0.01 vs Amphetamine group
Protocol: as §1
(§2) Group one: negative control group, intraperitoneally injected with 1% DMSO in physiological saline (10.0 ml/kg, i.p.);
Group two: experimental drug group, the rats were intraperitoneally injected respectively with different amounts of test compound Co. 1: 5, 10 and 30 mg/kg, i.p., the drug was formulated in 1% DMSO in physiological saline.
Group three: positive drug control group, the rats were intraperitoneally injected with Olanzepine (10 mg/kg, i.p., the drug was formulated in 1% DMSO in physiological saline)
The experiment employed Shanghai Jiliang animal behavior video analysis system, wherein the experimental environment was kept absolutely silent, when grabbing animals and administrating, movements were gentle to minimize adverse reactions of mental condition and emotion brought by external stimulus. The rats were moved from the animal room to a quiet lab and adapted for at least two hours. Subcutaneous injection of Amphetamine (1.0 mg/kg, s.c.), or 1% DMSO in physiological saline as control, was administrated. 30 minutes later, the animals were orally administrated of the compound, or physiological saline as control. The rats were placed in a spontaneous activity box, which was placed in an absolutely silent environment. The spontaneous activity box was connected to a recording apparatus and the activity conditions of rats were recorded for 30-60 minutes. The effect of drug or control on spontaneous activity in rats was determined.

[3] = test system: spontaneous activity in rats; assay: Effect of test compound on spontaneous activity in rats (LMA); assay type: in vivo, Wistar rats; settings: 5.0, 10 and 30 mg/kg i.p.; 60 minutes after administration; recorded 30-60 minutes; P>0.05, Dunnett's test
Protocol: Animals used for experiments were adult male Wistar rats weighing 180˜250 g, housed in groups of 6/cages, regulated with a 12/12 hour light/dark cycle, maintained at a constant temperature of 23±1° C. and a humidity of 50˜60% and allowed ad libitum access to rodent chow and water. After animals were purchased from the Experimental Animal Center, an adaptive housing was performed for a week, all the animals were randomly divided into two groups:
as §2
Group two: experimental drug group, the rats were intraperitoneally injected respectively with different doses of test compound Co. 1: 5.0, 10 and 30 mg/kg, i.p., the drug was formulated in 1% DMSO in physiological saline.
The experiment employed Shanghai Jiliang animal behavior video analysis system, wherein the experimental environment was kept absolutely silent, when grabbing animals and administrating, movements were gentle to minimize adverse reactions of mental condition and emotion brought by external stimulus. […] The spontaneous activity box was connected to a recording apparatus and the activity conditions of rats were recorded for 30-60 minutes. The effect of drug or control on spontaneous activity in rats was determined.

hERG = hERG (Homo sapiens, UniProt Q12809); assay: hERG (pKi); assay type: binding
Cmax in rat CSF = assay type: in vivo; settings: sc, 10 mg/kg s.c.
GlyT1 = target: T1, GlyT1 (Homo sapiens, UniProt P48067); assay: Anti-glycine reuptake activity, GlyT1; assay type: cell-based; settings: listed as head criterion > 6; mean of three experiments; read-out: GlyT1 pEC50 (converted)
T1 sequence (P48067 1-706): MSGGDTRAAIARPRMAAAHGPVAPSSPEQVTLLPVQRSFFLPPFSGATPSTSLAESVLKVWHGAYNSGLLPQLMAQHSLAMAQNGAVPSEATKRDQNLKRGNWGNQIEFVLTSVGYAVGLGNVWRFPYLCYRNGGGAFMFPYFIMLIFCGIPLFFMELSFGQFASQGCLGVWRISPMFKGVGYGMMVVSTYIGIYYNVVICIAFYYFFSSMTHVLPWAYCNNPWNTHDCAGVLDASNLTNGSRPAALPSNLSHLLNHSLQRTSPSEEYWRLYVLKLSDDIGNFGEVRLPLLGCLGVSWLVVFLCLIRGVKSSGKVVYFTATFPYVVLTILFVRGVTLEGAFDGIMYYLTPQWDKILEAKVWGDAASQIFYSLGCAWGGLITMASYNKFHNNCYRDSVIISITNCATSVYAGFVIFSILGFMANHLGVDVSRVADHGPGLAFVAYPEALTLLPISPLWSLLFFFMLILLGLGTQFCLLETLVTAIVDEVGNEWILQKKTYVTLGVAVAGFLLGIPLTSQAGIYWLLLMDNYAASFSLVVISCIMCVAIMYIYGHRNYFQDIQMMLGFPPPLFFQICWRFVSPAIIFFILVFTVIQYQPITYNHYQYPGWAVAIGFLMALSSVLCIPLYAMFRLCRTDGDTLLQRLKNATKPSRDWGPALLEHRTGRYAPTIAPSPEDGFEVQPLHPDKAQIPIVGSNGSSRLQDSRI
Text: (§3) methods commonly used in the art were employed to determine the anti-glycine reuptake activity of the compound of the present invention. The experiment was repeated for three times and the mean value was taken.

G1yT2 = target: T2, G1yT2 (Homo sapiens, UniProt Q9Y345); assay: Selectivity vs GlyT2; assay type: cell-based; settings: listed as head criterion >10 × vs G1yT2
T2 sequence (Q9Y345 1-797): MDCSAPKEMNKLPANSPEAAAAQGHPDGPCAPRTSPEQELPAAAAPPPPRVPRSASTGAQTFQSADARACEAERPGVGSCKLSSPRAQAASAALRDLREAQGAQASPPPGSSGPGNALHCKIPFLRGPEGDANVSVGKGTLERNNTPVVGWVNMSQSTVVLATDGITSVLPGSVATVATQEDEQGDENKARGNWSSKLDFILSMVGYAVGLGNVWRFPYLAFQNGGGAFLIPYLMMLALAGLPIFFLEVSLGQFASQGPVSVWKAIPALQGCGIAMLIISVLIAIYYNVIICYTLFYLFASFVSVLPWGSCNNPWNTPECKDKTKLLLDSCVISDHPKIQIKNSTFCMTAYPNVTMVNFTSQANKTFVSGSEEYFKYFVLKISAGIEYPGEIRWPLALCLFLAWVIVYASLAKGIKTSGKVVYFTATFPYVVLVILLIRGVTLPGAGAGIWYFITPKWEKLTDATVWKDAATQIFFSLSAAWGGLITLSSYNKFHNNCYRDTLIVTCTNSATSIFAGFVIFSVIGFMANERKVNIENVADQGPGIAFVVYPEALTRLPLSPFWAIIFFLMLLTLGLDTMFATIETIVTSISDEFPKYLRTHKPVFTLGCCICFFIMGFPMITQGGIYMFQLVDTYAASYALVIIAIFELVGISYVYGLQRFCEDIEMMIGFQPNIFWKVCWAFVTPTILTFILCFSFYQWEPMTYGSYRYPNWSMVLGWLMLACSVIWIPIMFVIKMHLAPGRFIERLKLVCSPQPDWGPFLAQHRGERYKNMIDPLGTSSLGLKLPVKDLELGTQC
Text: as §3

in vitro = in vitro ADME; settings: microsomes
Text: as §3

[4] = Measured Clint, R-heps (hepatocytes); assay type: in vitro ADME, rat
Rat PK = assay type: in vivo
NET = NET (Homo sapiens, UniProt P23975); assay: Selectivity, NET; assay type: cell-based; settings: read-out: Selectivity NET pEC50 (converted)
Chain of NET (P23975 whole entry): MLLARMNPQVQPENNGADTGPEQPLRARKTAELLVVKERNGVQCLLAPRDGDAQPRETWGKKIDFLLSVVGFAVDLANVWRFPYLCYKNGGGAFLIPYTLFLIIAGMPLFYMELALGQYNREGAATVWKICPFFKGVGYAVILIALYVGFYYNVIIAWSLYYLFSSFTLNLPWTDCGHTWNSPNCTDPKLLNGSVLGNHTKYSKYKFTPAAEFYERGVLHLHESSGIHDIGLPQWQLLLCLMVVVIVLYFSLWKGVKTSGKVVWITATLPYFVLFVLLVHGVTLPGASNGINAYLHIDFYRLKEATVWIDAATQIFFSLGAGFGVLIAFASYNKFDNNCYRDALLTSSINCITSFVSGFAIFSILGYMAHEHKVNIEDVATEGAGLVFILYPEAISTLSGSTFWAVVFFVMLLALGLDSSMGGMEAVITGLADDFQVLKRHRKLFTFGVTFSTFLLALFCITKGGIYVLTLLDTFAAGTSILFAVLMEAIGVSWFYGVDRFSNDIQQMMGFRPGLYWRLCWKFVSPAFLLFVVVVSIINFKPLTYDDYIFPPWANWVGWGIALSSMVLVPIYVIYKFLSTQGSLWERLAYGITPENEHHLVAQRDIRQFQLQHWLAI

Chain of hERG (Q12809 whole entry): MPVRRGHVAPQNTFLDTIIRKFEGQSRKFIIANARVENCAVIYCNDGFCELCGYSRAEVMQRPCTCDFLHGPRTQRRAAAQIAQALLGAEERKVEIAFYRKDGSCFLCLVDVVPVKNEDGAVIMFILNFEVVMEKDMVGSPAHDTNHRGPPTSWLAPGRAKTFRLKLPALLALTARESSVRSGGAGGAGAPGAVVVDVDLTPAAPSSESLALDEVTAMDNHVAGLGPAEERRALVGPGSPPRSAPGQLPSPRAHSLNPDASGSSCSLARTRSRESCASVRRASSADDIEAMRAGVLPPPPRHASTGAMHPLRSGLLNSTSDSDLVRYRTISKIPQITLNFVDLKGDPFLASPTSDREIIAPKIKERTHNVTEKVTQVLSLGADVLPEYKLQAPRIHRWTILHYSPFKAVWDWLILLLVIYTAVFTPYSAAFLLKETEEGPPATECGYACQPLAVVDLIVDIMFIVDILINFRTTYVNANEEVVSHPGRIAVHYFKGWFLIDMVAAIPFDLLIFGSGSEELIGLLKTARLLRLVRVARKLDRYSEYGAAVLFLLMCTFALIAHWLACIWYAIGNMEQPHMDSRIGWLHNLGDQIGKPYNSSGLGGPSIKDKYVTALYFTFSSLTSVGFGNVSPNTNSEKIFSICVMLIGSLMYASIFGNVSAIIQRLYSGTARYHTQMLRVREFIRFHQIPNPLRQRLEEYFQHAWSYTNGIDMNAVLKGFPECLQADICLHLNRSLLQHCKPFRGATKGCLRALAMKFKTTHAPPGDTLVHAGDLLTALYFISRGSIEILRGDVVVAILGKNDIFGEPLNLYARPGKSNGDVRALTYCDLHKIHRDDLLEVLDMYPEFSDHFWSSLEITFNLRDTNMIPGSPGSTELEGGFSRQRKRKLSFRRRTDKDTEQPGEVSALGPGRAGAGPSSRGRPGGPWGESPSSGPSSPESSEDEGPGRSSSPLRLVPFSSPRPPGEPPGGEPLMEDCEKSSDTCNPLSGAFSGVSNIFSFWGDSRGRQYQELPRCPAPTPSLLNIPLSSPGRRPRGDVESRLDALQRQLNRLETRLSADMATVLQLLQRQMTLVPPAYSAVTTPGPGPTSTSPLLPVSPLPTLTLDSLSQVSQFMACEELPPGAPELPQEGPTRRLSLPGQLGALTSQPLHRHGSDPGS

Cc1cc(C(=O)N[C@@H](CN2CCCCC2)C(C)C)cc(-c2ccccc2C(F)(F)F)n1 [Co. 1]
inhibition of high-activity behaviors in rats induced by PCP [1]: significantly inhibited
inhibitory effect on PCP-induced high-activity behaviors compared with the positive drug Olanzepine ([1]; P<0.05, Dunnett's test, compared with the Olanzepine/PCP group): stronger
inhibition of high-activity behaviors in rats induced by Amphetamine [2]: significantly inhibited
inhibitory effect on Amphetamine-induced high-activity behaviors compared with the positive drug Olanzepine ([2]; P<0.05, Dunnett's test, compared with the Olanzepine/Amphetamine group): stronger
effect on spontaneous activity in rats [3]: no significant effect

CCC(C)[C@@H](CN1CCCCC1)NC(=O)c1cc(C)nc(-c2cc(C)ccc2C(F)(F)F)c1 (some centres unmarked) [Co. 2]
Ki (hERG): 12600 nM
Cmax (Cmax in rat CSF): 60 nM
EC50 (GlyT1): 63.1 nM
G1yT2 effect at 10-5 M (G1yT2): 14% @ 10-5 M
microsomal CLint (in vitro; human): 135 µL/min/mg
microsomal CLint (in vitro; rat): 81 µL/min/mg
Measured Clint R-heps [4]: R-heps 15 ul/ml/106 cells
Rat PK C1 (Rat PK): 52 mL/min/kg
Rat PK P (Rat PK): < 1%
EC50 (NET): 316 nM

Cc1cc2c(s1)Nc1ccccc1N=C2N1CCN(C)CC1 [Olanzepine, reference compound]
inhibition of high-activity behaviors in rats induced by PCP [1]: significantly inhibited
inhibition of high-activity behaviors in rats induced by Amphetamine [2]: significantly inhibited
